Laboratory results published in patent US10611795B2, “Methods for viral inactivation using eco-friendly detergents” (priority 2013, dated 2020).
“And” between values parts separate entries of the source, which are not always exact repeats. Identical values can stand only once. Like-named read-outs stand apart in the source and are kept apart here.

What was measured:
[1] = test system: bovine viral diarrhea virus (BVDV); assay: BVDV inactivation, plaque assay with BT indicator cells (LRV); format: cell-based; conditions: rProtein 2 HCCF, 0.3% Detergent, 20° C., Run 1, Run 2
[2] = cited from earlier work; for acute EC50: 30 min Photobacterium phosphoreum (marine light-emitting bacteria); for Biodegradability classification in Closed Bottle and Modified OECD Screening Tests: both Closed Bottle and Modified OECD Screening Tests; for EC50: 3 weeks, Selenastrum capricornutum
[3] = Detergent mixing turbidity analysis (average absorbance 340-360 nm); format: physicochemical; conditions: MAb1 HCCF
[4] = test system: Xenotropic Murine Leukemia Virus (XMuLV); format: cell-based; conditions: for xMuLV inactivation LRV, Time 2 / xMuLV inactivation LRV, Time 3 / xMuLV inactivation LRV, Time 1 / xMuLV inactivation, in words / xMuLV inactivation LRV, Time 0.5 / xMuLV inactivation LRV, Time 6: 20° C.; for xMuLV inactivation LRV, Time 2: 2 h; for xMuLV inactivation LRV, Time 3: 3 h; for xMuLV inactivation LRV, Time 1: 1 h; for xMuLV inactivation, in words: detergent or solvent alone; for xMuLV inactivation LRV, Time 0.5: 0.5 h; for XMuLV LRV: rProtein1 CaptoAdhere Pool, Room Temperature; for xMuLV inactivation LRV, Time 6: 6 h
[5] = Turbidity after detergent exposure; format: physicochemical; conditions: MAb3 HCCF and MAb3 MSS pool, three hours
[6] = EHS evaluation: basic physical and toxicological characteristics from manufacturer and government literature; conditions: not solid due to the algal and fish data
[7] = MAb1 HCCF, listed as 0.03M caprylate pH 4.5
[8] = MAb1 HCCF, listed as 0.03M caprylate pH 7.6
[9] = MAb1 HCCF, listed as 0.1M caprylate pH 5.0
[10] = MAb1 HCCF, listed as 0.1M caprylate pH 7.6
[11] = MAb1 Protein A pool, listed as 1% Polysorbate 80
[12] = MAb1 Protein A pool, listed as 2% Polysorbate 80
[13] = various (12 species) marine microalgae, 10-12 d
[14] = ~2 d, Sphaerechinus granularis, sea urchin embryo-larval test, marine
[15] = MAb1 HCCF, listed as 1% Polysorbate 20
[16] = MAb1 HCCF, listed as 2% Polysorbate 20

Q: What does the source list for Triton X-100?
A: BVDV log reduction value ([1]; 30 min): 5.4 and 5.5; BVDV log reduction value ([1]; 60 min): >5.4 and >5.5

Q: Which results are given for `CCCCCCCCCCCCOC1OC(CO)C(O)C(O)C1O` (stereo not drawn) [Alkylglucosides C12]?
A: acute EC50 [2]: C12 = 8.8 mg/l), 30 min; Biodegradability classification in Closed Bottle and Modified OECD Screening Tests [2]: C10 and C12) are readily

Q: What does the source list for `CCCCCCCC(=O)O` [caprylate, caprylic acid]?
A: turbidity during mixing, after filtration and overnight incubation (FIGS. 2, 3), in words [3]: Turbidity increased with the addition and mixing; xMuLV inactivation LRV, Time 2 [4, 7]: ≥5.0; xMuLV inactivation LRV, Time 2 [4, 8]: 0.21; xMuLV inactivation LRV, Time 2 [4, 9]: ≥5.1; xMuLV inactivation LRV, Time 2 [4, 10]: ≥6.0; xMuLV inactivation LRV, Time 3 [4, 7]: ≥5.0; xMuLV inactivation LRV, Time 3 [4, 8]: 0.30; xMuLV inactivation LRV, Time 3 [4, 9]: ≥5.1; xMuLV inactivation LRV, Time 3 [4, 10]: ≥6.0; turbidity, in words [5]: Significant turbidity

Q: With `CCCCCCCCOC1OC(CO)C(O)C(O)C1O` (stereo not drawn) [Alkylglucosides C8] as the molecule, how does the “acute EC50” value [2] read?
A: The value was 11.7 mg/L.

Q: And the “Biodegradability classification in Closed Bottle and Modified OECD Screening Tests” value [2]?
A: The value was “C10 and C12) are readily”.

Q: What does the source list for Polysorbate 80?
A: xMuLV inactivation LRV, Time 1 ([4]; MAb1 HCCF): 3.3; xMuLV inactivation LRV, Time 3 ([4]; MAb1 HCCF): 5.7; xMuLV inactivation, in words ([4]; MAb1 HCCF): less effective; xMuLV inactivation LRV, Time 0.5 [4, 11]: 0.4; xMuLV inactivation LRV, Time 0.5 [4, 12]: 0.7; xMuLV inactivation LRV, Time 1 [4, 11]: 0.9; xMuLV inactivation LRV, Time 1 [4, 12]: 0.7; xMuLV inactivation LRV, Time 2 ([4]; MAb1 Protein A pool): 1.2; xMuLV inactivation LRV, Time 3 [4, 11]: 1.1; xMuLV inactivation LRV, Time 3 [4, 12]: 1.0; XMuLV LRV ([4]; 5 min, Run 1, Run 2): .45; XMuLV LRV ([4]; 10 min, Run 1, Run 2): .57; XMuLV LRV ([4]; 15 min): .82; XMuLV LRV ([4]; 30 min): 2.1; time to effective XMuLV inactivation ([4]; rProtein1 CaptoAdhere pool, room temperature): 1 h; ?NOEC ([2]; 3 weeks Selenastrum capricornutum, printed with question marks): 100 mg/l? 3 weeks; chronic NOEC ([2]; 4 d Gloeocapsa (Cyanobacteria)): chronic NOEC 100 mg/l 4 d; chronic NOEC ([2]; 96 h Tetrahymena pyriformis): chronic NOEC 250 mg/l 96 h; algal NOEC ([2]; Chlorella vulgaris 96 h, freshwater): algal NOEC 2 mg/l; Biodegradability according to Roche's inherent biodegradability test (OECD 302) [2]: Poor biodegradability; algal EC10 (~NOEC) ([2]; Scenedesmus quadricauda 96 h, freshwater): algal EC10 (~NOEC) 6.99 mg/l; EC50 ([2]; freshwater): EC50 ≥100 mg/l, ?NOEC; chronic NOEC [2, 13]: chronic NOEC 10 mg/l; chronic NOEC [2, 14]: chronic NOEC 20 mg/l ~2 d,

Q: What does the source list for `CCCCCCOC1OC(CO)C(O)C(O)C1O` (stereo not drawn) [Alkylglucosides C6]?
A: acute EC50 [2]: EC50: C6 = 490 mg/l; C8 =; Biodegradability classification in Closed Bottle and Modified OECD Screening Tests [2]: C10 and C12) are readily

Q: For `CCCCCCCCCCOC1OC(CO)C(O)C(O)C1O` (stereo not drawn) [Alkylglucosides C10], which “acute EC50” value [2] is on record?
A: The value was 7.9 mg/L.

Q: What about the “Biodegradability classification in Closed Bottle and Modified OECD Screening Tests” value [2] of the same molecule?
A: Its value is “C10 and C12) are readily”.

Q: Which results are given for Polysorbate 20?
A: xMuLV inactivation LRV, Time 0.5 [4, 15]: 1.0; xMuLV inactivation LRV, Time 0.5 [4, 16]: 0.6; xMuLV inactivation LRV, Time 1 [4, 15]: 1.4; xMuLV inactivation LRV, Time 1 [4, 16]: 0.7; xMuLV inactivation LRV, Time 3 [4, 15]: 2.3; xMuLV inactivation LRV, Time 3 [4, 16]: 2.2; xMuLV inactivation LRV, Time 6 [4, 15]: 4.5; xMuLV inactivation LRV, Time 6 [4, 16]: 5.6; xMuLV inactivation, in words ([4]; MAb1 HCCF): less effective; preliminary acute-based freshwater PNEC [6]: freshwater PNEC 0.1 mg/l,; acute LC50 ([2]; 1 d Artemia sp. (marine)): acute LC50 1447 mg/l 1 d; LC50 ([2]; 1 d Poecilia reticulata, freshwater): LC50 350 mg/l 1 d Poecilia; Biodegradability according to Roche's inherent biodegradability test (OECD 302) [2]: Poor biodegradability; EC50 ([2]; freshwater): EC50 ≤100 mg/l 3 weeks; acute NOEC ([2]; highest tested concentration, limit test, 48 h Daphnia magna, OECD202): acute NOEC 10 mg/l; chronic NOEC ([2]; highest tested concentration, limit test, 21 d Daphnia magna, OECD repro): chronic NOEC 10 mg/l; chronic NOEC [2, 13]: chronic NOEC 10 mg/l; chronic NOEC [2, 14]: chronic NOEC 20 mg/l ~2 d,

Q: Which Biodegradability classification ([2]; as stated in the Biodegradability column, no single test named) does the source give for `CCCCCCCCCCCC(=O)NCCC[N+](C)(C)CC(=O)[O-]` [lauramidopropyl betaine] here?
A: The Biodegradability classification was “readily biodegradable”.
